Reference: US8455397B2, “Penoxsulam as a turfgrass, vineyard and orchard floor herbicide” (Dow AgroSciences, LLC, priority 2005, dated 2013)

Tests used:
[1] = tested on: yellow nutsedge (CYPES); assay: Granule carrier/particle size, post emergence greenhouse study; format: in vivo, Cypres esculentus L.; settings: postemergent greenhouse
Procedure: (§1) Greenhouse and field studies evaluated the effect of two granule carriers and two particles sizes on the postemergent broadleaf activity of penoxsulam. The two carriers were a 46-0-0 and 28-4-12 fertilizer blend and the particle sizes averaged 0.75 mm and 2.15 mm.
(§2) Greenhouse studies were applied both post and pre-emergence to broadleaf weeds and sedge reared from seed or nutlet in 12.7″ (32.25 cm) by 8.8″ (22.35 cm) flats of a loam soil. Particle size and carrier were evaluated post emergence, carrier comparisons with the smaller particle size of 0.75 was evaluated pre-emergence. Stage of growth of species at post emergence application: PLAMA and TAROF in the 3 to 5 leaf stage, TRFRE in the 3rd tri-foliate stage and CYPES in the 3 to 4 leaf stage. Post emergence trial design was a replicated block, one species per flat, 3 replicate flats per treatment. Granule treatments were uniformly applied to individual flats on an area basis using a common hand-shaker method. Post emergence applications were made to the flat covering both soil and misted foliage. Trial was sub-irrigated daily, and watered over the top 1 time per week starting 7 days after application to simulate a natural rainfall event. Active weed growth was maintained throughout the study period. Weed control of each species in the post emergence study was assessed at 2, 3 and 4 weeks after treatment. Pre-emergence trial design was 2 species per flat, 4 replicate flats, block design. Pre-emergence applications were made to the soil surface using a common hand shaker method on an area basis. Overhead irrigation was maintained throughout the trial. Weed control of each species in the pre-emergence study was assessed at 2, 3, 4 and 5 weeks after application. Control was determined visually by comparing treated and untreated flats and scored on a 0 to 100 percent scale where 0 corresponds to no control and 100 corresponds to complete kill.

[2] = tested on: dandelion (TAROF); assay: Granule carrier comparison, pre-emergence greenhouse study; format: in vivo, Taraxacum officinale; settings: pre-emergent greenhouse
Procedure: as §1, §2

[3] = tested on: redstem filaree (EROCI); assay: Pre-emergence orchard floor weeds, greenhouse study; format: in vivo, Erodivam cicutarium; settings: 28 Days After Application
Procedure: (§3) Greenhouse studies were conducted by seeding species in a loam soil and applying the herbicides to the soil surface using a Cornwall 5 milliliter glass syringe fitted with a TeeJet TN-3 nozzle on an area basis Immediately following herbicide application the pots were irrigated over the top to move the herbicides into the seeding zone. Pots were kept well irrigated throughout the trial. A percent visual weed control assessment was taken 4 weeks after application. Control was determined visually by comparing treated and untreated pots and scored on a 0 to 100 percent scale where 0 corresponds to no control and 100 corresponds to complete kill, or no emergence.

[4] = tested on: Cyperus esculentus (CYPES); assay: Post emergence synergy greenhouse study, penoxsulam + commercial turf granules; format: in vivo; settings: 27 Days After Application
Procedure: Post emergence greenhouse studies were conducted by applying a 0.14% w/w (weight for weight) penoxsulam loaded urea granule alone and in combination with commercial turf granules. The loading for the commercial granules is listed below Table XI. Greenhouse studies were applied on a kilogram of product per hectare basis (KG PR/Ha) post emergence to broadleaf weeds and sedge reared from seed or nutlet in 12.7″ (32.25 cm) by 8.8″ (22.35 cm) flats of a loam soil. Trial design was replicated block, one species per flat, 4 replicate flats per treatment. Post emergence applications were made to the flat covering both soil and misted foliage using a common hand-shaker method distributing the samples uniformly over the flat. Trial was sub-irrigated daily, and watered over the top 1 time per week starting 7 days after application to simulate a natural rainfall event. Active weed growth was maintained throughout the study period. Weed control was assessed at 2, 3 and 4 weeks after treatment. Control was determined visually by comparing treated and untreated flats and scored on a 0 to 100 percent scale where 0 corresponds to no control and 100 corresponds to complete kill.

[5] = tested on: white clover (TRFRE); assay: Postemergent granule herbicides, turfgrass field studies; format: in vivo, Trifolium repens L.
Procedure: Field studies were conducted in established turfgrass sites containing a natural population of target broadleaf weeds. Replicated trials, containing a minimum of three replications and having individual plots ranging in size from 25 to 50 ft. sq (2.3 to 4.6 square meters), were initiated in the late spring when turf and weeds were actively growing. Granule treatments were uniformly applied to individual plots using a common hand-shaker method. Applications were made in the early morning when dew was present. Natural rainfall and supplemental irrigation were used to maintain healthy turf and active weed growth throughout the study period. Control of each weed species in the study site was made at 2, 4 and 8 weeks after treatment. Control was determined visually by comparing treated and untreated weeds and scored on a 0 to 100 percent scale where 0 corresponds to no control and 100 corresponds to complete kill.

[6] = tested on: common groundsel (SENVU); assay: Pre-emergence orchard floor weeds, greenhouse study; format: in vivo, Senecio vulgaris; settings: 28 Days After Application
Procedure: as §3

[7] = tested on: white clover (TRFRE); assay: Granule carrier comparison, pre-emergence greenhouse study; format: in vivo, Trifolium repens L.; settings: pre-emergent greenhouse
Procedure: as §1, §2

[8] = tested on: dandelion (TAROF); assay: Granule carrier/particle size, post emergence greenhouse study; format: in vivo, Taraxacum officinale; settings: postemergent greenhouse
Procedure: as §1, §2

[9] = carrier 28-4-12, particle size 0.75 mm, 5.6 gai/Ha
[10] = carrier 28-4-12, particle size 0.75 mm, 11.2 gai/Ha
[11] = carrier 28-4-12, particle size 0.75 mm, 22.4 gai/Ha
[12] = carrier 28-4-12, particle size 2.15 mm, 5.6 gai/Ha
[13] = carrier 28-4-12, particle size 2.15 mm, 11.2 gai/Ha
[14] = carrier 28-4-12, particle size 2.15 mm, 22.4 gai/Ha
[15] = carrier 46-0-0, particle size 0.75 mm, 5.6 gai/Ha
[16] = carrier 46-0-0, particle size 0.75 mm, 11.2 gai/Ha
[17] = carrier 46-0-0, particle size 0.75 mm, 22.4 gai/Ha
[18] = carrier 46-0-0, particle size 2.15 mm, 5.6 gai/Ha
[19] = carrier 46-0-0, particle size 2.15 mm, 11.2 gai/Ha
[20] = carrier 46-0-0, particle size 2.15 mm, 22.4 gai/Ha

COc1cnc(OC)n2nc(NS(=O)(=O)c3c(OCC(F)F)cccc3C(F)(F)F)nc12 [Penoxsulam, 2-(2,2-difluoroethoxy)-N-(5,8-dimethoxy[1,2,4]triazolo[1,5-c]-pyrimidin-2-yl)-6-(trifluoromethyl)benzenesulfonamide]
Percent Weed Control 27-30 DAA [1, 9]: 18% | Percent Weed Control 27-30 DAA [1, 10]: 37% | Percent Weed Control 27-30 DAA [1, 11]: 60% | Percent Weed Control 27-30 DAA [1, 12]: 37% | Percent Weed Control 27-30 DAA [1, 13]: 25% | Percent Weed Control 27-30 DAA [1, 14]: 35% | Percent Weed Control 27-30 DAA [1, 15]: 18% | Percent Weed Control 27-30 DAA [1, 16]: 30% | Percent Weed Control 27-30 DAA [1, 17]: 65% | Percent Weed Control 27-30 DAA [1, 18]: 3% | Percent Weed Control 27-30 DAA [1, 19]: 20% | Percent Weed Control 27-30 DAA [1, 20]: 42% | Percent Weed Control 35 DAA [2, 9]: 71% | Percent Weed Control 35 DAA [2, 10]: 96% | Percent Weed Control 35 DAA [2, 11]: 98% | Percent Weed Control 35 DAA [2, 15]: 77% | Percent Weed Control 35 DAA [2, 16]: 96% | Percent Weed Control 35 DAA [2, 17]: 96% | Pre-emergent Percent Mean Control ([3]; 8.8 gai/Ha): 79% | Pre-emergent Percent Mean Control ([3]; 17.5 gai/Ha): 97% | Pre-emergent Percent Mean Control ([3]; 35 gai/Ha): 100% | Pre-emergent Percent Mean Control ([3]; 70 gai/Ha): 100% | % Control Component A ([4]; 2.4 kg Product/Ha of 0.14% w/w urea granule): 16% | % Control Component A ([4]; 8.0 kg Product/Ha of 0.14% w/w urea granule): 44% | Mean Percent Weed Control ([5]; Table I, 4 Weeks After Treatment, 8 sites, Penoxsulam 140 gai/Ha, Scotts Plus 2 1682+841 gae/Ha, Trimec 1121+516+112 gae/Ha): 93% | Mean Percent Weed Control ([5]; Table I, 8 Weeks After Treatment, 7 sites, Penoxsulam 140 gai/Ha, Scotts Plus 2 1682+841 gae/Ha, Trimec 1121+516+112 gae/Ha): 94% | Mean Percent Weed Control ([5]; Table III, 4 Weeks After Treatment, 22.4 gai/Ha, 8 sites): 85% | Mean Percent Weed Control ([5]; Table III, 4 Weeks After Treatment, 44.9 gai/Ha, 8 sites): 94% | Mean Percent Weed Control ([5]; Table III, 4 Weeks After Treatment, 67.3 gai/Ha, 8 sites): 96% | Mean Percent Weed Control ([5]; Table III, 4 Weeks After Treatment, 100 gai/Ha, 8 sites): 96% | Mean Percent Weed Control ([5]; Table III, 8 Weeks After Treatment, 22.4 gai/Ha, 8 sites): 74% | Mean Percent Weed Control ([5]; Table III, 8 Weeks After Treatment, 44.9 gai/Ha, 8 sites): 88% | Mean Percent Weed Control ([5]; Table III, 8 Weeks After Treatment, 67.3 gai/Ha, 8 sites): 91% | Mean Percent Weed Control ([5]; Table III, 8 Weeks After Treatment, 100 gai/Ha, 8 sites): 97% | Pre-emergent Percent Mean Control ([6]; 8.8 gai/Ha): 95% | Pre-emergent Percent Mean Control ([6]; 17.5 gai/Ha): 100% | Pre-emergent Percent Mean Control ([6]; 35 gai/Ha): 100% | Pre-emergent Percent Mean Control ([6]; 70 gai/Ha): 100% | Percent Weed Control 35 DAA [7, 9]: 80% | Percent Weed Control 35 DAA [7, 10]: 98% | Percent Weed Control 35 DAA [7, 11]: 99% | Percent Weed Control 35 DAA [7, 15]: 55% | Percent Weed Control 35 DAA [7, 16]: 75% | Percent Weed Control 35 DAA [7, 17]: 98% | Percent Weed Control 27-30 DAA [8, 9]: 50% | Percent Weed Control 27-30 DAA [8, 10]: 88% | Percent Weed Control 27-30 DAA [8, 11]: 97% | Percent Weed Control 27-30 DAA [8, 12]: 23% | Percent Weed Control 27-30 DAA [8, 13]: 60% | Percent Weed Control 27-30 DAA [8, 14]: 68% | Percent Weed Control 27-30 DAA [8, 15]: 55% | Percent Weed Control 27-30 DAA [8, 16]: 67% | Percent Weed Control 27-30 DAA [8, 17]: 98% | Percent Weed Control 27-30 DAA [8, 18]: 23% | Percent Weed Control 27-30 DAA [8, 19]: 48% | Percent Weed Control 27-30 DAA [8, 20]: 60%
